Test results reported in paper PMC9569529, “Safe and Efficient Sigma1 Ligand: A Potential Drug Candidate for Multiple Sclerosis” (International Journal of Molecular Sciences, 2022).
Where two headings read alike, the source gives them in different places.

Key:
SH-SY5Y = test system: SH-SY5Y; design: method as in PMID 28756263; conditions: cited from earlier work
S. typhimurium TA98 = test: Ames test; conditions: 7i 40 µg/plate
Plasma stability = assay type: in vitro ADME; conditions: male, CD-1, mouse, 37 °C, read-out: Plasma t½ (converted)
Experimental: Plasma stability analyses were performed by M2SV (Lille, France). Incubations were performed in duplicate. The plasma (male mouse plasma CD-1, lithium-heparinized, from Sera Laboratories International Ltd. BioIVT, West Sussex, UK) was pre-incubated for 10 min at 37 °C before addition of the compound to a final concentration of 10 µM (0,1% DMSO). At the defined time points (0, 60, 1440 and 2880 min), fractions from each tube were transferred to fresh tubes containing cold CH3CN and an internal standard (Propanolol at 1 µM). After vigorous agitation and centrifugation (10 min at 10,000 rpm), the supernatants were analyzed. The degradation half-life (t1/2) values were calculated in minutes and hours via non-linear regression analysis using Microsoft® XLfit® Excel add-in from IDBS Ltd, Woking, UK.

Caco-2 cell line = test: Bidirectional permeability in Caco-2 (pH 6.5/7.4); assay type: in vitro ADME, human; conditions: Papp(B-A)/Papp(A-B), pH 6.5/7.4
Experimental: (§1) The compound was classically evaluated at 10 µM for all the ADME analyses. Bidirectional permeability (apical A to basolateral B pH 6.5/7.4 and basolateral B to apical A pH 7.4/6.5) was assessed in the epithelial colorectal adenocarcinoma cell line (Caco-2 cell line). Results were expressed as × 10^−6cm/s (Papp) and as % recovery. Efflux ratio, i.e., Papp(B-A)/Papp(A-B), was calculated. Plasma protein binding was analyzed by HPLC-MS/MS after 4-h incubation at 37 °C, as described by Banker et al.. Concentration was evaluated by LC/MS-MS. CYP inhibition was performed in human liver microsomes as described in [61]. Analysis of the respective metabolites. was performed by HPLC-MS/MS. Transporter inhibition analysis was also performed in overexpressing cell lines. Respective metabolites for each specific transporter substrate were analyzed by fluorometry or scintillation counting and % inhibition of control values were calculated. P-glycoprotein transporter substrate assessment was performed by bidirectional permeability analysis (apical A to basolateral B pH 7.4/7.4 and basolateral B to apical A pH 7.4/7.4) in the Caco-2 cell line with and without verapamil, as described in [59]. Results were expressed as ×10^−6 cm/s (Papp) and as % recovery. The efflux ratio, i.e., Papp(B-A)/Papp(A-B), was calculated. CYP450 induction characterization was performed on human hepatocytes. The mRNA levels of 7 different CYPs were analyzed by qPCR, as described in [72]. The compound was evaluated at 1, 10 and 100 µM. Fold-induction values were determined and compared to cut-off values, as defined for each CYP isozyme in each hepatocyte lot.

MRP3 = MRP3 (Homo sapiens, UniProt O15438); test: Drug transporter inhibition (ABC family); assay type: in vitro ADME; conditions: transporter-overexpressing cell lines, read-out: Drug transporters inhibition MRP3
Experimental: as §1

BCRP = BCRP (Homo sapiens, UniProt Q9UNQ0); test: Drug transporter inhibition (ABC family); assay type: in vitro ADME; conditions: transporter-overexpressing cell lines, read-out: Drug transporters inhibition BCRP
Chain of BCRP (Q9UNQ0 whole entry): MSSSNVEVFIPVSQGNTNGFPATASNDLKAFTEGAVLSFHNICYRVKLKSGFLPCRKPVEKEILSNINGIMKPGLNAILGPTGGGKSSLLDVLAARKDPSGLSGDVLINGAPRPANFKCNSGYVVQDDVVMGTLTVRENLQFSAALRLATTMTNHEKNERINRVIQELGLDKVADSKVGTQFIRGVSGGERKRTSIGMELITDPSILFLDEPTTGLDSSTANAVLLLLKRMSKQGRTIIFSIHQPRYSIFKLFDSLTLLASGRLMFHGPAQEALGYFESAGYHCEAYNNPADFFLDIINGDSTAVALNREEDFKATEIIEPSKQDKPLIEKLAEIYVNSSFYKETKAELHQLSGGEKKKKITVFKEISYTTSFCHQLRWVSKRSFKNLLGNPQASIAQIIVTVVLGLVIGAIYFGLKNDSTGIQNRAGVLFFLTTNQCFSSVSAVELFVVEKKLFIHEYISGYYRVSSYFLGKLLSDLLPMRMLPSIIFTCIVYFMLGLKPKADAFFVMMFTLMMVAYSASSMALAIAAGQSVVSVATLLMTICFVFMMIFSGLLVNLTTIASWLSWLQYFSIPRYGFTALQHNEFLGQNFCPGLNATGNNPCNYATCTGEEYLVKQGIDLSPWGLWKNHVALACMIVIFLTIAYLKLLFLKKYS
Experimental: as §1

MRP1 = MRP1 (Homo sapiens, UniProt P33527); test: Drug transporter inhibition (ABC family); assay type: in vitro ADME; conditions: transporter-overexpressing cell lines, read-out: Drug transporters inhibition MRP1
Chain of MRP1 (P33527 whole entry): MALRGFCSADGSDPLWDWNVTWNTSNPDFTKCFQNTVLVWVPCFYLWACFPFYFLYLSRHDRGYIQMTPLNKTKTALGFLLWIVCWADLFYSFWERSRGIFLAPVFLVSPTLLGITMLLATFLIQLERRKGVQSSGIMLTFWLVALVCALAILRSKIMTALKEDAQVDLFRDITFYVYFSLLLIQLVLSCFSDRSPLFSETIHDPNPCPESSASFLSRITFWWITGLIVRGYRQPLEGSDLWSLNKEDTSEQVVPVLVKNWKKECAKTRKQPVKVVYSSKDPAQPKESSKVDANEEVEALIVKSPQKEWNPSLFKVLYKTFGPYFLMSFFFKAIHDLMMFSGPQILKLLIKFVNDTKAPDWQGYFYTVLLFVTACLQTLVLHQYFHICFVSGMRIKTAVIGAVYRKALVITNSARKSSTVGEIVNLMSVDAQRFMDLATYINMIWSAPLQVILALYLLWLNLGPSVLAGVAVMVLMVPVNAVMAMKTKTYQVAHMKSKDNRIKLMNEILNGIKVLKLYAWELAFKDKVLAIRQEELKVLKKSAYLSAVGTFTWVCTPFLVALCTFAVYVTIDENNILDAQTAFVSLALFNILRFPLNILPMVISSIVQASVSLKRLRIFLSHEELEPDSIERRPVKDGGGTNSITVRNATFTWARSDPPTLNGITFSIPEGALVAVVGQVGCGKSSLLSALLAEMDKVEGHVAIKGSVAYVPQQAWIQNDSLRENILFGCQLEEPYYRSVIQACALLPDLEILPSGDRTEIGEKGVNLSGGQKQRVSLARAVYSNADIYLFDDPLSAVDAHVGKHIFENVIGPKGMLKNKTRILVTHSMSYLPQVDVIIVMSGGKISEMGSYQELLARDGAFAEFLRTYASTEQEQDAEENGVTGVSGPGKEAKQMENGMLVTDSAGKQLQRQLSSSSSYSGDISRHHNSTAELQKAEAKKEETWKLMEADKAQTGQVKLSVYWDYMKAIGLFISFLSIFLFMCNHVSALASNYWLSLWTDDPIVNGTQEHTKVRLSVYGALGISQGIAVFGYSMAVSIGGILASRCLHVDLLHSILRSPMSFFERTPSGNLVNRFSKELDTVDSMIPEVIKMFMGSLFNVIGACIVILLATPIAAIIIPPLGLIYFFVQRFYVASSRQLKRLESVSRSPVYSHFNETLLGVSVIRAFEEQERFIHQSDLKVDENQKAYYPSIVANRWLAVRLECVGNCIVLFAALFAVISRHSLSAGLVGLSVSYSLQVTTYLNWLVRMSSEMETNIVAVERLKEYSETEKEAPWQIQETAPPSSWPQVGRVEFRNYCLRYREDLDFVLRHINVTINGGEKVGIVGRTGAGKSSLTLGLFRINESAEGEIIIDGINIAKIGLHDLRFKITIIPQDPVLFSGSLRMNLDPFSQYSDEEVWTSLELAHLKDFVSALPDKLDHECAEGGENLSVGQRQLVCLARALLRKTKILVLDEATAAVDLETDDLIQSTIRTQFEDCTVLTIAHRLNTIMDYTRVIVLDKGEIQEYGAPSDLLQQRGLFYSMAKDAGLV
Experimental: as §1

P-gp = target: T1, P-gp (Homo sapiens, UniProt P08183); test: Drug transporter inhibition (ABC family); assay type: in vitro ADME; conditions: transporter-overexpressing cell lines, read-out: Drug transporters inhibition P-gp
T1 construct: in the Caco-2 cell line with and without verapamil; host or cells: Caco-2
Experimental: as §1

MRP2 = MRP2 (Homo sapiens, UniProt Q92887); test: Drug transporter inhibition (ABC family); assay type: in vitro ADME; conditions: transporter-overexpressing cell lines, read-out: Drug transporters inhibition MRP2
Experimental: as §1

NTCP = NTCP (Homo sapiens, UniProt Q14973); test: Drug transporter inhibition (SLC family); assay type: in vitro ADME; conditions: read-out: Drug transporters inhibition NTCP
Chain of NTCP (Q14973 whole entry): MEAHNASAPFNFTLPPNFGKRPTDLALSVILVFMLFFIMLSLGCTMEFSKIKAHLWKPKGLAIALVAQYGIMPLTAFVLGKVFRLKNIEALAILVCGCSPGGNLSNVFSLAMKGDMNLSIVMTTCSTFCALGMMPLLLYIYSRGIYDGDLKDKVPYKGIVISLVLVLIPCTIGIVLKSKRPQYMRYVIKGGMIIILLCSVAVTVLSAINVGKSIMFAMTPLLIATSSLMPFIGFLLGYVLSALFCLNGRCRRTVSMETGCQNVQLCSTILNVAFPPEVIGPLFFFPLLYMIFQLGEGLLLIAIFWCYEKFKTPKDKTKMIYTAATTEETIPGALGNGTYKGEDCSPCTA
Experimental: as §1

OCT2 = OCT2 (Homo sapiens, UniProt O15244); test: Drug transporter inhibition (SLC family); assay type: in vitro ADME; conditions: transporter-overexpressing cell lines, read-out: Drug transporters inhibition OCT2
Chain of OCT2 (O15244 whole entry): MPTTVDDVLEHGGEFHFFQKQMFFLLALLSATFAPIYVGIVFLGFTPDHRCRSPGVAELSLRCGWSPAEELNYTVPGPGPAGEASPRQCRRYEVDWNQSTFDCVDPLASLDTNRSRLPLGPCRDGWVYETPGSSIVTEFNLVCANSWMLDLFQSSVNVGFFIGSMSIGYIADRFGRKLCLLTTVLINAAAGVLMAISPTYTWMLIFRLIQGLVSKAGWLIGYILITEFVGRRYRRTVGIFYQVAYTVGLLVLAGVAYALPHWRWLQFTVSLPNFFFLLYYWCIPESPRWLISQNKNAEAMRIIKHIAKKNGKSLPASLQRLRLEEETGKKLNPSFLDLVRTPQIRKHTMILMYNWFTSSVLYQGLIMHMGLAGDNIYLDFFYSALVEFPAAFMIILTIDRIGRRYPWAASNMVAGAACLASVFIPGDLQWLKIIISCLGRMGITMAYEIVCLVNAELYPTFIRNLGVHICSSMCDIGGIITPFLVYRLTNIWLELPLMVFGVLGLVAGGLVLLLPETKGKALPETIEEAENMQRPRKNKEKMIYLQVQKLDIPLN
Experimental: as §1

ABST = ABST (Homo sapiens, UniProt Q12908); test: Drug transporter inhibition (SLC family); assay type: in vitro ADME; conditions: read-out: Drug transporters inhibition ABST
Experimental: as §1

OCT1 = OCT1 (Homo sapiens, UniProt O15245); test: Drug transporter inhibition (SLC family); assay type: in vitro ADME; conditions: transporter-overexpressing cell lines, read-out: Drug transporters inhibition OCT1
Chain of OCT1 (O15245 whole entry): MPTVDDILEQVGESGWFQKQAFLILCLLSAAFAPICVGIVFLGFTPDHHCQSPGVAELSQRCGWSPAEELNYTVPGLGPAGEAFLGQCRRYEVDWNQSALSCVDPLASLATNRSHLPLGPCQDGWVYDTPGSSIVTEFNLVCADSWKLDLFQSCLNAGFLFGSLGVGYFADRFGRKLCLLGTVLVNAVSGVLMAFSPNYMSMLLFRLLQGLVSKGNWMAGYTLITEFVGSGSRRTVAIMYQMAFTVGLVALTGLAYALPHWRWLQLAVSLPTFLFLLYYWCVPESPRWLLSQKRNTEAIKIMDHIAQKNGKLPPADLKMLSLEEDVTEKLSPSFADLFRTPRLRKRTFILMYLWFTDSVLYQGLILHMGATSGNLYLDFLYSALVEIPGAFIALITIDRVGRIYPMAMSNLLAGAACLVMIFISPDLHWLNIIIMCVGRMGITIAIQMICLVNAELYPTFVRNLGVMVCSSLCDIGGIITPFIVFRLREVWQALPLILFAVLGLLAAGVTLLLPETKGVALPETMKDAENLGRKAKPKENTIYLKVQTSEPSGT
Experimental: as §1

OAT1 = OAT1 (Homo sapiens, UniProt Q4U2R8); test: Drug transporter inhibition (SLC family); assay type: in vitro ADME; conditions: transporter-overexpressing cell lines, read-out: Drug transporters inhibition OAT1
Chain of OAT1 (Q4U2R8 whole entry): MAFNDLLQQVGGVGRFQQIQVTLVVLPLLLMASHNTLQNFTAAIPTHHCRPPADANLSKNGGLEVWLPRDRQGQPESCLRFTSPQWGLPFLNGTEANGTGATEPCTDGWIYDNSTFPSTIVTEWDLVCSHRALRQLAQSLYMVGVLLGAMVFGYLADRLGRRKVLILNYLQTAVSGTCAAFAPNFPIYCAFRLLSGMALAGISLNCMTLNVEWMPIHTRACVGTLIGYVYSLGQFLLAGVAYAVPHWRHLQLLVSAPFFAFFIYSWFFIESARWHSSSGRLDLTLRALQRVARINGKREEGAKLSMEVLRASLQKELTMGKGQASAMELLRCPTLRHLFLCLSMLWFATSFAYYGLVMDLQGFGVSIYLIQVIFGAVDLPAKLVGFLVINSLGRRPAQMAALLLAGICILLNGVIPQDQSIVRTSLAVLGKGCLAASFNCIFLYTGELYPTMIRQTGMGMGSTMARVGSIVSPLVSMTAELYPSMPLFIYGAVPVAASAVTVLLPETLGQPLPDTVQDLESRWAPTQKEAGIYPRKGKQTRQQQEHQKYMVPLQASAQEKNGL
Experimental: as §1

OATP1B3 = OATP1B3 (Homo sapiens, UniProt Q9NPD5); test: Drug transporter inhibition (SLC family); assay type: in vitro ADME; conditions: transporter-overexpressing cell lines, read-out: Drug transporters inhibition OATP1B3
Experimental: as §1

OAT3 = OAT3 (Homo sapiens, UniProt Q8TCC7); test: Drug transporter inhibition (SLC family); assay type: in vitro ADME; conditions: transporter-overexpressing cell lines, read-out: Drug transporters inhibition OAT3
Chain of OAT3 (Q8TCC7 whole entry): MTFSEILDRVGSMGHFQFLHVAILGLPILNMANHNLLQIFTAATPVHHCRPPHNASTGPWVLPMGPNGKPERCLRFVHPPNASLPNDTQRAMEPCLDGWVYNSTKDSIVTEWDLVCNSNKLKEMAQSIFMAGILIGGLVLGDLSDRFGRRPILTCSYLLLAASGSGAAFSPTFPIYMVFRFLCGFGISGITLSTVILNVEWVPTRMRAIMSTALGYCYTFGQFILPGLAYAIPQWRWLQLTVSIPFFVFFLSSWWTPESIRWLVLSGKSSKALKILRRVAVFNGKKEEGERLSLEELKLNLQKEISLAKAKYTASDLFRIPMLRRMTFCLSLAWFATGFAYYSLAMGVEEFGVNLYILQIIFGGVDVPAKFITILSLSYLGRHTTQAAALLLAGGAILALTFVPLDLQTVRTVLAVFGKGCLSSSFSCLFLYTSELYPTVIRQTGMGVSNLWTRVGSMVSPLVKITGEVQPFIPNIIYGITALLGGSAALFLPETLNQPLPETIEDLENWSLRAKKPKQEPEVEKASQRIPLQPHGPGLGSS
Experimental: as §1

OATP1B1 = OATP1B1 (Homo sapiens, UniProt Q9Y6L6); test: Drug transporter inhibition (SLC family); assay type: in vitro ADME; conditions: transporter-overexpressing cell lines, read-out: Drug transporters inhibition OATP1B1
Experimental: as §1

hERG = target: T2, hERG (Homo sapiens, UniProt Q12809); test: hERG automated patch-clamp in hERG-CHO cells; assay type: cell-based
T2 construct: host or cells: CHO (hERG-CHO overexpressing cells)
Experimental: Cardiotoxicity analysis was performed by Eurofins Cerep (Poitiers, France) according to [73]. hERG-CHO overexpressing cells were used to perform automated patch-clamping. Compound 7i was evaluated at 0.1, 1 and 10 µM. Activities were expressed as % inhibition of tail current.

S. typhimurium TA100 = conditions: 7i 40 µg/plate
[1] = +S9, positive control 2-anthramine 0.5

**Q.** Which results are given for CN(CCCNC(=O)c1ccc(Cl)cc1)Cc1ccccc1 [compound 7i]?
**A.** Inhibition SH-SY5Y (% at 100 µM) (SH-SY5Y; 100 µM): 28%; cytotoxicity (SH-SY5Y): no cytotoxicity; Ames TA98 +S9 (Mean revertants/well per title) (S. typhimurium TA98; [1]): 1.1; Ames TA98 −S9 (Mean revertants/well per title) (S. typhimurium TA98; −S9, positive control 2-nitrofluorene 0.5): 1.1; half-life at 10 µM (Plasma stability): > 24 h; e-ratio (efflux ratio) (Caco-2 cell line): 2.3; inhibition at 10 µM (MRP3): -0.3%; inhibition at 10 µM (BCRP): 8.3%; inhibition at 10 µM (MRP1): 1.9%; inhibition at 10 µM (P-gp): 10.6%; inhibition at 10 µM (MRP2): -18.8%; inhibition at 10 µM (NTCP): -1.7%; inhibition at 10 µM (OCT2): 49.4%; inhibition at 10 µM (ABST): 5.3%; inhibition at 10 µM (OCT1): 41.2%; inhibition at 10 µM (OAT1): -9.6%; inhibition at 10 µM (OATP1B3): 23.1%; inhibition at 10 µM (OAT3): 34.3%; inhibition at 10 µM (OATP1B1): 12%; IC50 (hERG; Table 4, read-out: hERG inhibition IC50): 1000 nM; Ames TA100 +S9 (Mean revertants/well per title) (S. typhimurium TA100; [1]): 0.9; Ames TA100 −S9 (Mean revertants/well per title) (S. typhimurium TA100; −S9, positive control MNNG 0.25): 0.9

**Q.** Which half-life at 10 µM (Plasma stability) does the source give for O=C(NCCCNCc1ccccc1)c1ccc(Cl)cc1 [compound 7i-deMe] here?
**A.** Its half-life at 10 µM is 23 h.

**Q.** And the inhibition at 10 µM (MRP3)?
**A.** Its inhibition at 10 µM is -0.6%.

**Q.** What about the inhibition at 10 µM (BCRP) of the same molecule?
**A.** Its inhibition at 10 µM is -3%.

**Q.** What about the inhibition at 10 µM (MRP1) of the same molecule?
**A.** Its inhibition at 10 µM is -3.4%.

**Q.** What about the inhibition at 10 µM (P-gp) of the same molecule?
**A.** Its inhibition at 10 µM is 1%.

**Q.** What about the inhibition at 10 µM (MRP2) of the same molecule?
**A.** Its inhibition at 10 µM is -11.5%.

**Q.** What about the inhibition at 10 µM (NTCP) of the same molecule?
**A.** The inhibition at 10 µM was 8.7%.

**Q.** What about the inhibition at 10 µM (OCT2) of the same molecule?
**A.** The inhibition at 10 µM was 85.8%.

**Q.** And the inhibition at 10 µM (ABST)?
**A.** Its inhibition at 10 µM is 5%.

**Q.** What about the inhibition at 10 µM (OCT1) of the same molecule?
**A.** The inhibition at 10 µM was 64.6%.

**Q.** What about the inhibition at 10 µM (OAT1) of the same molecule?
**A.** The inhibition at 10 µM was -6.2%.

**Q.** What about the inhibition at 10 µM (OATP1B3) of the same molecule?
**A.** Its inhibition at 10 µM is 19.1%.

**Q.** What about the inhibition at 10 µM (OAT3) of the same molecule?
**A.** The inhibition at 10 µM was 18.7%.

**Q.** What about the inhibition at 10 µM (OATP1B1) of the same molecule?
**A.** Its inhibition at 10 µM is 8.6%.

**Q.** And the IC50 (hERG; read-out: hERG IC50)?
**A.** The IC50 was 1200 nM.
